Experimental findings from patent publication US10105357B2, “Indication of antibiotic drugs for preparation of cancer inhibition pharmaceutical composition” (LAUNX BIOMEDICAL CO., LTD., priority 2014, dated 2018) are described below.

Holding throughout (format): cell-based, human
One assay concerns cancer cell lines. Description: Cell viability analysis (WST-1) on cancer cell lines. The settings on record: drug 10 μM, 72 hours, WST-1; Table 3. On the technique in general: Tetrazolium assays rely on reduction of a dye to a coloured formazan, in cell work by metabolically active cells.
Assay [1] relates to HI650 (Lung Adenocarcinoma). In words: Cell viability analysis, lung cancer HI650. Conditions: Homo sapiens.
Assay [2] has as its system A549 (Lung Adenocarcinoma). Description: Cell viability analysis, lung cancer A549. The settings on record: Homo sapiens.
The subject of assay [3] is AGS (Gastric Adenocarcinoma). Description: Cell viability analysis, gastric cancer AGS. The settings on record: Homo sapiens.
For assay [4], the system named is MKN-45 (Gastric Adenocarcinoma). Description: Cell viability analysis, gastric cancer MKN-45. Conditions: Homo sapiens.
Assay [5] relates to HepG2 (Hepatocellular Carcinoma). Description: Cell viability analysis, hepatic cancer HepG2. Conditions: Homo sapiens.
In assay [6] the test system is LoVo (Colorectal Adenocarcinoma). Description: Cell viability analysis, colon cancer LoVo. Conditions: Homo sapiens, LoVo.
In assay [7] the test system is A375 (Amelanotic Melanoma). In words: Cell viability analysis, skin cancer A375. The settings on record: Homo sapiens.
The test system of assay [8] is HeLa (Cervix Adenocarcinoma). Description: Cell viability analysis, cervical cancer HeLa. Conditions: Homo sapiens, HeLa.
Assay [9] has as its system PC3 (p53−) (Prostate Adenocarcinoma). In words: Cell viability analysis, prostate cancer PC3. The settings on record: Homo sapiens.
Assay [10] relates to TSGH-8301 (Urinary Bladder Carcinoma). In words: Cell viability analysis, bladder cancer TSGH-8301. The settings on record: Homo sapiens.
The subject of assay [11] is MCF7 (Mammary Gland, Adenocarcinoma). Description: Cell viability analysis, breast cancer MCF7. Conditions: Homo sapiens.
The test system of assay [12] is HL-60 (Acute Promyelocytic Leukemia). Description: Cell viability analysis, leukemia HL-60. Conditions: Homo sapiens.
The mark [13] stands for this setting: NCI-H1650, 72 h, drug 10 μM, 72 hours, WST-1, OD450 nm, read-out: cell viability (survival rate), H1650.
The mark [14] stands for this setting: A549, 72 h, drug 10 μM, 72 hours, WST-1, OD450 nm, read-out: cell viability (survival rate), A549.
[15] abbreviates: 72 h, drug 10 μM, 72 hours, WST-1, OD450 nm, read-out: cell viability (survival rate), AGS.
Where [16] appears, read: MKN-45, 72 h, drug 10 μM, 72 hours, WST-1, OD450 nm, read-out: cell viability (survival rate), MKN-45.
The mark [17] stands for this setting: HepG2, 72 h, drug 10 μM, 72 hours, WST-1, OD450 nm, read-out: cell viability (survival rate), HepG2.
Where [18] appears, read: 72 h, read-out: cell viability (survival rate), LoVo, drug 10 μM, 72 hours, WST-1, OD450 nm.
Where [19] appears, read: A-375, 72 h, drug 10 μM, 72 hours, WST-1, OD450 nm, read-out: cell viability (survival rate), A375.
Setting [20] is: 72 h, drug 10 μM, 72 hours, WST-1, OD450 nm, read-out: cell viability (survival rate), HeLa.
Setting [21] is: 72 h, drug 10 μM, 72 hours, WST-1, OD450 nm, read-out: cell viability (survival rate), PC3.
Setting [22] is: 72 h, drug 10 μM, 72 hours, WST-1, OD450 nm, read-out: cell viability (survival rate), TSGH.
[23] abbreviates: MCF7, 72 h, drug 10 μM, 72 hours, WST-1, OD450 nm, read-out: cell viability (survival rate), MCF7.
[24] abbreviates: HL-60, 72 h, drug 10 μM, 72 hours, WST-1, OD450 nm, read-out: cell viability (survival rate), HL-60.
Setting [25] is: NCI-H1650, 72 h, read-out: cell viability (survival rate), H1650, drug 10 μM, 72 hours, WST-1, OD450 nm.
The mark [26] stands for this setting: A549, 72 h, read-out: cell viability (survival rate), A549, drug 10 μM, 72 hours, WST-1, OD450 nm.
Setting [27] is: 72 h, read-out: cell viability (survival rate), AGS, drug 10 μM, 72 hours, WST-1, OD450 nm.
[28] abbreviates: MKN-45, 72 h, read-out: cell viability (survival rate), MKN-45, drug 10 μM, 72 hours, WST-1, OD450 nm.
The mark [29] stands for this setting: HepG2, 72 h, read-out: cell viability (survival rate), HepG2, drug 10 μM, 72 hours, WST-1, OD450 nm.
Where [30] appears, read: A-375, 72 h, read-out: cell viability (survival rate), A375, drug 10 μM, 72 hours, WST-1, OD450 nm.
Setting [31] is: 72 h, read-out: cell viability (survival rate), HeLa, drug 10 μM, 72 hours, WST-1, OD450 nm.
The mark [32] stands for this setting: 72 h, read-out: cell viability (survival rate), PC3, drug 10 μM, 72 hours, WST-1, OD450 nm.
Where [33] appears, read: 72 h, read-out: cell viability (survival rate), TSGH, drug 10 μM, 72 hours, WST-1, OD450 nm.
The mark [34] stands for this setting: MCF7, 72 h, read-out: cell viability (survival rate), MCF7, drug 10 μM, 72 hours, WST-1, OD450 nm.
[35] abbreviates: HL-60, 72 h, read-out: cell viability (survival rate), HL-60, drug 10 μM, 72 hours, WST-1, OD450 nm.

Molecules are shown by their SMILES. Like-named read-outs stand apart in the source and are kept apart here.

Regarding `CN1CCC(=C2c3ccccc3CCc3cccnc32)CC1` [Azatadine dimaleate], in the assay with cancer cell lines, the “inhibition effect on different cancer cell lines” value is recorded as “significant inhibition effect”. The viability (in general, a read-out of living cells in per cent, often relative to untreated cells) at 10 µM in assay [1] (setting [13]) was found to be 48.5%; in assay [2] (setting [14]) it was 123%; in assay [3] (setting [15]) it was 67.1%; in [4] (setting [16]), 83.4%; in assay [5] (setting [17]), 84.5%; in [6] (setting [18]), 95.7%. The viability at 10 µM in [7] (setting [19]) was found to be 40.7%; in assay [8] (setting [20]) it was 72.2%; in [9] (setting [21]) it was 104%; in assay [10] (setting [22]), 78.5%; in assay [11] (setting [23]), 79.7%; in [12] (setting [24]), 113%.
On to `COc1ccc(O)cc1` [Mequinol], for which the “inhibition effect on different cancer cell lines” value in the assay with cancer cell lines is “significant inhibition effect”. The viability at 10 µM in [1] (setting [25]) is 67.5%; in assay [2] (setting [26]), 118%; in assay [3] (setting [27]), 57.2%; in assay [4] (setting [28]) it was 103%; in assay [5] (setting [29]), 95.6%; in assay [6] (setting [18]), 85.2%. Besides, the viability at 10 µM came out at 63.8% in assay [7] (setting [30]); 87.1% in [8] (setting [31]); 68% in [9] (setting [32]); 97% in [10] (setting [33]); 74.4% in assay [11] (setting [34]); 112% in [12] (setting [35]).
For `Nc1ncnc2c1ncn2[C@@H]1O[C@H](CO)[C@@H](O)[C@@H]1O` [Vidarabine (Vira-A), Vidarabine], the “inhibition effect on different cancer cell lines” value with cancer cell lines is “significant inhibition effect”. The viability at 10 µM worked out at 78.8% in assay [1] (setting [25]); 32.2% in [2] (setting [26]); 104% in assay [3] (setting [27]); 44.4% in assay [4] (setting [28]); 74.2% in assay [5] (setting [29]); 72.9% in assay [6] (setting [18]). Further, the viability at 10 µM in [7] (setting [30]) came to 48.1%; in [8] (setting [31]), 47.7%; in [9] (setting [32]) it was 70.6%; in [10] (setting [33]) it was 68.6%; in assay [11] (setting [34]) it was 36.5%; in assay [12] (setting [35]), 99%.
As to `Cc1cc(=O)n(-c2ccccc2)n1C` [Antipyrine], the “inhibition effect on different cancer cell lines” value in the assay with cancer cell lines was “significant inhibition effect”. Also, the viability at 10 µM in assay [1] (NCI-H1650, drug 10 μM, 72 hours, WST-1, OD450 nm, read-out: cell viability (survival rate), H1650) came out at 57.3%; in [2] (A549, drug 10 μM, 72 hours, WST-1, OD450 nm, read-out: cell viability (survival rate), A549) it was 76.4%; in assay [3] (drug 10 μM, 72 hours, WST-1, OD450 nm, read-out: cell viability (survival rate), AGS) it was 109%; in assay [4] (MKN-45, drug 10 μM, 72 hours, WST-1, OD450 nm, read-out: cell viability (survival rate), MKN-45), 109%; in [5] (HepG2, drug 10 μM, 72 hours, WST-1, OD450 nm, read-out: cell viability (survival rate), HepG2), 105%; in [6] (drug 10 μM, 72 hours, WST-1, OD450 nm, read-out: cell viability (survival rate), LoVo) it was 97.1%. Also, the viability at 10 µM in assay [7] (A-375, drug 10 μM, 72 hours, WST-1, OD450 nm, read-out: cell viability (survival rate), A375) was 77.9%; in assay [8] (drug 10 μM, 72 hours, WST-1, OD450 nm, read-out: cell viability (survival rate), HeLa) it was 76.8%; in assay [9] (drug 10 μM, 72 hours, WST-1, OD450 nm, read-out: cell viability (survival rate), PC3), 76.8%; in assay [10] (drug 10 μM, 72 hours, WST-1, OD450 nm, read-out: cell viability (survival rate), TSGH), 90.1%; in assay [11] (MCF7, drug 10 μM, 72 hours, WST-1, OD450 nm, read-out: cell viability (survival rate), MCF7) it was 61.3%; in assay [12] (HL-60, drug 10 μM, 72 hours, WST-1, OD450 nm, read-out: cell viability (survival rate), HL-60) it was 102%.
For the compound `CO[C@H]1/C=C/O[C@@]2(C)Oc3c(C)c(O)c4c(c3C2=O)C2=NC3(CCN(CC(C)C)CC3)NC2=C(NC(=O)/C(C)=C\C=C\[C@H](C)[C@H](O)[C@@H](C)[C@@H](O)[C@@H](C)[C@H](OC(C)=O)[C@@H]1C)C4=O` [Rifabutin (Mycobutin), Rifabutin], the “inhibition effect on different cancer cell lines” value in the assay on cancer cell lines is listed as “significant inhibition effect”. The viability at 10 µM in assay [1] (setting [25]) turned out to be 88.2%; in assay [2] (setting [26]), 53.1%; in [3] (setting [27]) it was 115%; in assay [4] (setting [28]) it was 62.4%; in [5] (setting [29]) it was 148%; in assay [6] (setting [18]), 104%. In addition, the viability at 10 µM in [7] (setting [30]) was 84%; in assay [8] (setting [31]), 52.8%; in assay [9] (setting [32]), 72.6%; in assay [10] (setting [33]), 82.5%; in assay [11] (setting [34]), 48.8%; in [12] (setting [35]), 100%.
`CC(=O)SCC(Cc1ccccc1)C(=O)NCC(=O)OCc1ccccc1` (centres unmarked) [Racecadotril (Acetorphan), Racecadotril]: the “inhibition effect on different cancer cell lines” value with cancer cell lines was “significant inhibition effect”. For the same compound, the viability at 10 µM was 82.9% in assay [1] (setting [13]); 95.8% in [2] (setting [14]); 84% in assay [3] (setting [15]); 97.4% in assay [4] (setting [16]); 88.8% in assay [5] (setting [17]); 74.5% in [6] (setting [18]). In addition, the viability at 10 µM was determined as 66.2% in assay [7] (setting [19]); 65.6% in assay [8] (setting [20]); 107% in [9] (setting [21]); 65.6% in [10] (setting [22]); 108% in assay [11] (setting [23]); 122% in [12] (setting [24]).
Regarding `O=C(N/N=C/c1ccc([N+](=O)[O-])o1)c1ccc(O)cc1` [Nifuroxazide], the “inhibition effect on different cancer cell lines” value in the assay with cancer cell lines was “significant inhibition effect”. The viability at 10 µM was determined as 57.6% in [1] (setting [25]); 33.2% in assay [2] (setting [26]); 36.7% in [3] (setting [27]); 51% in assay [4] (setting [28]); 73% in assay [5] (setting [29]); 58.3% in [6] (setting [18]). Besides, the viability at 10 µM came out at 51.6% in [7] (setting [30]); 66.6% in assay [8] (setting [31]); 92% in [9] (setting [32]); 56.2% in [10] (setting [33]); 80.1% in [11] (setting [34]); 38.8% in assay [12] (setting [35]).
On to `Nc1nc(O)c2ncn(COC(CO)CO)c2n1` [Ganciclovir], for which the “inhibition effect on different cancer cell lines” value in the assay on cancer cell lines was “significant inhibition effect”. Further, the viability at 10 µM in [1] (setting [25]) was found to be 97.3%; in [2] (setting [26]) it was 104%; in [3] (setting [27]), 106%; in assay [4] (setting [28]) it was 87%; in [5] (setting [29]), 109%; in assay [6] (setting [18]), 99.9%. In addition, the viability at 10 µM was determined as 94.8% in [7] (setting [30]); 107% in assay [8] (setting [31]); 71.8% in assay [9] (setting [32]); 103% in [10] (setting [33]); 68.6% in [11] (setting [34]); 98.7% in assay [12] (setting [35]).
